Assays:
[1] = molecular target: T1, Peptide Deformylase (PDF) (Escherichia coli, UniProt P0A6K3); assay: Bacterial peptide deformylase (PDF) assay, colorimetric cell free, enzyme from E. coli; assay type: biochemical
T1 construct: made in house
Description: (§1) To find inhibitors of Peptide Deformylase (PDF), a colorimetric cell free assay for measuring the enzymatic activity of PDF has been adapted to the microtiter plate format (96 wells). The assay comprises three components, purified PDF, f-Met-Ala as substrate and TNBS as the detecting agent of primary amino groups. The resulting TNP_NH-Met-Ala sulfite complex can be detected at 420 nm. PDF enzymes, containing Fe^2+ as the native metal, are purified and are stabilized by the addition of tris(2-carboxyethyl)phosphine (TCEP).
(§2) The IC50 value of a compound of the invention as a bacterial PDF inhibitor was determined using the following assay.
(§3) Assay buffer 0.1 M MOPS pH was adjusted to 7.2 with NaOH, containing 0.25 M NaCl, 100 μg/mL catalase and 1 mg/mL BSA.
(§4) E. coli enzyme (2.5 mg/ml) 10 μl+290 μl Assay buffer, 1 μl per ml enzyme mix. S. aureus (15 mg/ml) 10 μl+990 μl Assay buffer, 0.3 μl per ml enzyme mix.
(§5) Substrate mix: 10 mM f-Met-Ala was made up from 200 mM f-Met-Ala in methanol with assay buffer.
(§6) TNBS solution: Freshly dilute 1 M TNBS stock solution diluted 1:10 with water.
(§7) Buffer C: 0.5 M borate buffer adjusted to pH 9.5 with NaOH.
(§8) Buffer D: 0.2 ml of freshly prepared 0.5 M Na2SO3 was mixed with 9.8 mL of 0.5M NaH2PO4.
(§9) Inhibitor solution: 2 mM Sodium 4-(hydroxymercurio)benzoate in assay buffer.
(§10) Compound mix: Compound of formula I dissolved in DMSO in a 10 mg/mL stock solution. Further dilutions were made in DMSO in the concentration range between 0.05 to 100 mM.
(§11) The assay was performed in a 96 Microtiter plate containing test compound. To each well containing test compound mix was added 75 microliter of enzyme mix from E. coli followed by the addition of 25 microliter of substrate mix. The resulting mix was incubated for 30 minutes at room temperature with shaking. TNBS solution (50 microliter/well) was added and the resulting mixture was incubated for 15 minutes under shaking. Buffer C was then added (20 microliter/well). After incubating at room temperature for 15 minutes under shaking, buffer D was added (50 microliter/well). The optical […] was then measured at 420 nm, thereby determining the IC50 value.

[2] = molecular target: T2, Peptide Deformylase (PDF) (Staphylococcus aureus, UniProt P68826); assay: Bacterial peptide deformylase (PDF) assay, colorimetric cell free, enzyme from S. aureus; assay type: biochemical; conditions: f-Met-Ala substrate, TNBS detection at 420 nm
T2 construct: made in house
T2 sequence (P68826 1-183): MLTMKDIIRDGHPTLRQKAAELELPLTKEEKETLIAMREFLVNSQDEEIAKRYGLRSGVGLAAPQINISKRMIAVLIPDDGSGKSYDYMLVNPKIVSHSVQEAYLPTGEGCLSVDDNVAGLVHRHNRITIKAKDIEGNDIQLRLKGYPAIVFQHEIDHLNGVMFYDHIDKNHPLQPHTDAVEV
Description: as §1, §2, §3, §4, §5, §6, §7, §8, §9, §10, §11
The assay was repeated using enzyme mix from S. aureus.

T1 sequence (P0A6K3 whole entry): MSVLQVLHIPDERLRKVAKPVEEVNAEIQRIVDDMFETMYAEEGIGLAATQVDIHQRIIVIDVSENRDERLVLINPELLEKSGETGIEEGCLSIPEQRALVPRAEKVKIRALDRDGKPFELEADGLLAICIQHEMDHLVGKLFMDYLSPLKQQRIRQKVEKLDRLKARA

Q: What does the source list for `COC(=O)CNC(=O)c1ccc2c(c1)nc(C(CCSC)NC(=O)CCC(=O)O)n2C1CC1` (stereo not drawn) [Example 16, N-{1-[1-Cyclopropyl-5-(methoxycarbonylmethyl-carbamoyl)-1H-benzoimidazol-2-yl]-3-methylsulfanyl-propyl}-succinamic acid]?
A: IC50 [1]: 47.2 µM; IC50 [2]: 17.6 µM

Q: `COC(=O)CNC(=O)c1ccc2c(c1)nc(C(Cc1cccc3ccccc13)NC(=O)CCC(=O)O)n2CCc1cccs1` (stereo not drawn) [Example 17, N-{1-[5-(Methoxycarbonylmethyl-carbamoyl)-1-(2-thiophen-2-yl-ethyl)-1H-benzoimidazol-2-yl]-2-naphthalen-1-yl-ethyl}-succinamic acid] was tested. Which IC50 [1] did it give?
A: The IC50 was 0.071 µM.

Q: What about the IC50 [2] of the same molecule?
A: The IC50 was 0.099 µM.

Q: For `CCCCn1c(C(Cc2cccc3ccccc23)NC(=O)CCC(=O)O)nc2cc(C(=O)NCC(=O)OC)ccc21` (stereo not drawn) [Example 18], which IC50 [1] is on record?
A: The IC50 was 2.7 µM.

Q: And the IC50 [2]?
A: The IC50 was 0.074 µM.

Q: With `COC(=O)CNC(=O)c1ccc2c(c1)nc(C(CCCCN)NC(=O)CCS)n2CC1CCCCC1` (stereo not drawn) [Example 19, ({2-[5-Amino-1-(3-mercapto-propionylamino)-pentyl]-1-cyclohexylmethyl-1H-benzoimidazole-5-carbonyl}-amino)-acetic acid methyl ester] as the molecule, how does the IC50 [1] read?
A: Its IC50 is 38.1 µM.

Q: And the IC50 [2]?
A: The IC50 was 27.1 µM.

Q: Which results are given for `COC(=O)CNC(=O)c1ccc2c(c1)nc(C(Cc1ccc(O)cc1)NC(=O)CCS)n2C1CC1` (stereo not drawn) [Example 20, ({1-Cyclopropyl-2-[2-(4-hydroxy-phenyl)-1-(3-mercapto-propionylamino)-ethyl]-1H-benzoimidazole-5-carbonyl}-amino)-acetic acid methyl ester]?
A: IC50 [1]: > 200 µM; IC50 [2]: > 200 µM

Q: What does the source list for `COC(=O)CNC(=O)c1ccc2c(c1)nc(C(Cc1ccc(O)cc1)NC(=O)CCS)n2CC1CCCCC1` (stereo not drawn) [Example 21, ({1-Cyclohexylmethyl-2-[2-(4-hydroxy-phenyl)-1-(3-mercapto-propionylamino)-ethyl]-1H-benzoimidazole-5-carbonyl}-amino)-acetic acid methyl ester]?
A: IC50 [1]: > 200 µM; IC50 [2]: > 200 µM

Q: `COC(=O)CNC(=O)c1ccc2c(c1)nc(C(Cc1ccccc1)NC(=O)CCS)n2CCO` (stereo not drawn) [Example 22, ({1-(2-Hydroxy-ethyl)-2-[1-(3-mercapto-propionylamino)-2-phenyl-ethyl]-1H-benzoimidazole-5-carbonyl}-amino)-acetic acid methyl ester] was tested. Which IC50 [1] did it give?
A: The IC50 was over 200 µM.

Q: What about the IC50 [2] of the same molecule?
A: The IC50 was over 200 µM.

Q: Which results are given for `COC(=O)CNC(=O)c1ccc2c(c1)nc(C(CCCCN)NC(=O)CCC(=O)O)n2CC1CCCCC1` (stereo not drawn) [Example 24, N-{5-Amino-1-[1-cyclohexylmethyl-5-(methoxycarbonylmethyl-carbamoyl)-1H-benzoimidazol-2-yl]-pentyl}-succinamic acid]?
A: IC50 [1]: 13.1 µM; IC50 [2]: 1.4 µM

Q: Which IC50 [1] does the source give for `COC(=O)CNC(=O)c1ccc2c(c1)nc(C(Cc1ccc(O)cc1)NC(=O)CCC(=O)O)n2C1CC1` (stereo not drawn) [Example 25, N-[1-[1-Cyclopropyl-5-(methoxycarbonylmethyl-carbamoyl)-1H-benzoimidazol-2-yl]-2-(4-hydroxyphenyl)-ethyl]-succinamic acid] here?
A: Its IC50 is 12.8 µM.

Q: And the IC50 [2]?
A: Its IC50 is 28.3 µM.

Q: Which results are given for `COC(=O)CNC(=O)c1ccc2c(c1)nc(C(Cc1ccc(O)cc1)NC(=O)CCC(=O)O)n2CC1CCCCC1` (stereo not drawn) [Example 26, N-[1-[1-Cyclohexylmethyl-5-(methoxycarbonylmethyl-carbamoyl)-1H-benzoimidazol-2-yl]-2-(4-hydroxyphenyl)-ethyl]-succinamic acid]?
A: IC50 [1]: 35.2 µM; IC50 [2]: 25 µM

Q: With `COC(=O)CNC(=O)c1ccc2c(c1)nc(C(Cc1ccccc1)NC(=O)CCC(=O)O)n2CCO` (stereo not drawn) [Example 27, N-{1-[1-(2-Hydroxy-ethyl)-5-(methoxycarbonylmethyl-carbamoyl)-1H-benzoimidazol-2-yl]-2-phenyl-ethyl}-succinamic acid] as the molecule, how does the IC50 [1] read?
A: The IC50 was 41.8 µM.

Q: And the IC50 [2]?
A: Its IC50 is 27.7 µM.

Q: With `COC(=O)CNC(=O)c1ccc2c(c1)nc(C(CC(C)C)NC(=O)CCC(=O)O)n2CCO` (stereo not drawn) [Example 28, N-{1-[1-(2-Hydroxy-ethyl)-5-(methoxycarbonylmethyl-carbamoyl)-1H-benzoimidazol-2-yl]-3-methylbutyl}-succinamic acid] as the molecule, how does the IC50 [1] read?
A: The IC50 was over 200 µM.

Q: And the IC50 [2]?
A: Its IC50 is 34.4 µM.

Q: `CCC(NC(=O)CCC(=O)NO)c1nc2cc(C(=O)NCC(=O)OC)ccc2n1C1CC1` (stereo not drawn) [Example 29, ({1-Cyclopropyl-2-[1-(3-hydroxycarbamoyl-propionylamino)-propyl]-1H-benzoimidazole-5-carbonyl}-amino)-acetic acid methyl ester] was tested. Which IC50 [1] did it give?
A: The IC50 was 0.079 µM.

Q: And the IC50 [2]?
A: Its IC50 is 0.105 µM.

Q: How did the IC50 [1] turn out when `CCC(NC(=O)CCC(=O)NO)c1nc2cc(C(=O)NCC(=O)OC)ccc2n1Cc1ccco1` (stereo not drawn) [Example 31, ({1-Furan-2-ylmethyl-2-[1-(3-hydroxycarbamoyl-propionylamino)-propyl]-1H-benzoimidazole-5-carbonyl}-amino)-acetic acid methyl ester] was run?
A: Its IC50 is 0.098 µM.

Q: What about the IC50 [2] of the same molecule?
A: The IC50 was 0.151 µM.

Q: Which IC50 [1] does the source give for `CCC(NC(=O)CCC(=O)NO)c1nc2cc(C(=O)NCC(=O)OC)ccc2n1Cc1ccccc1` (stereo not drawn) [Example 32, ({1-Benzyl-2-[1-(3-hydroxycarbamoyl-propionylamino)-propyl]-1H-benzoimidazole-5-carbonyl}-amino)-acetic acid methyl ester] here?
A: Its IC50 is 0.045 µM.

Q: And the IC50 [2]?
A: Its IC50 is 0.067 µM.

Q: Which results are given for `COC(=O)CNC(=O)c1ccc2c(c1)nc(C(CCSC)NC(=O)CCC(=O)NO)n2Cc1ccccc1` (stereo not drawn) [Example 38]?
A: IC50 [1]: 25.8 µM; IC50 [2]: 3.5 µM

Q: What does the source list for `COC(=O)CNC(=O)c1ccc2c(c1)nc(C(Cc1ccccc1)NC(=O)CCC(=O)NO)n2Cc1ccc(Cl)cc1` (stereo not drawn) [Example 40, ({1-(4-Chloro-benzyl)-2-[1-(3-hydroxycarbamoyl-propionylamino)-2-phenyl-ethyl]-1H-benzoimidazole-5-carbonyl}-amino)-acetic acid methyl ester]?
A: IC50 [1]: 1.4 µM; IC50 [2]: 0.021 µM

Q: For `COC(=O)CNC(=O)c1ccc2c(c1)nc(C(CCc1ccccc1)NC(=O)CCC(=O)NO)n2C1CC1` (stereo not drawn) [Example 41, ({1-Cyclopropyl-2-[1-(3-hydroxycarbamoyl-propionylamino)-3-phenyl-propyl]-1H-benzoimidazole-5-carbonyl}-amino)-acetic acid methyl ester], which IC50 [1] is on record?
A: Its IC50 is 2.3 µM.

Q: And the IC50 [2]?
A: The IC50 was 0.363 µM.

Q: `COC(=O)CNC(=O)c1ccc2c(c1)nc(C(Cc1cccc3ccccc13)NC(=O)CCC(=O)NO)n2Cc1ccccc1` (stereo not drawn) [Example 46, ({1-Benzyl-2-[1-(3-hydroxycarbamoyl-propionylamino)-2-naphthalen-1-yl-ethyl]-1H-benzoimidazole-5-carbonyl}-amino)-acetic acid methyl ester] was tested. Which IC50 [1] did it give?
A: The IC50 was 6.5 µM.

Q: What about the IC50 [2] of the same molecule?
A: The IC50 was 0.9 µM.

Q: With `CCCCn1c(C(Cc2ccccc2)NC(=O)CCC(=O)NO)nc2cc(C(=O)NCC(=O)OC)ccc21` (stereo not drawn) [Example 47, ({1-Butyl-2-[1-(3-hydroxycarbamoyl-propionylamino)-2-phenyl-ethyl]-1H-benzoimidazole-5-carbonyl}-amino)-acetic acid methyl ester] as the molecule, how does the IC50 [1] read?
A: The IC50 was 5.3 µM.

Q: What about the IC50 [2] of the same molecule?
A: Its IC50 is 0.019 µM.

Q: With `COC(=O)CNC(=O)c1ccc2c(c1)nc(C(CCCCN)NC(=O)CCS)n2C1CC1` (stereo not drawn) [Example 48, ({2-[5-Amino-1-(3-mercapto-propionylamino)-pentyl]-1-cyclopropyl-1H-benzoimidazole-5-carbonyl}-amino)-acetic acid methyl ester] as the molecule, how does the IC50 [1] read?
A: The IC50 was 3.6 µM.

Q: What about the IC50 [2] of the same molecule?
A: Its IC50 is 2 µM.

Q: `COC(=O)CNC(=O)c1ccc2c(c1)nc(C(CCCCN)NC(=O)CCS)n2Cc1ccccc1` (stereo not drawn) [Example 49, ({2-[5-Amino-1-(3-mercapto-propionylamino)-pentyl]-1-benzyl-1H-benzoimidazole-5-carbonyl}-amino)-acetic acid methyl ester] was tested. Which IC50 [1] did it give?
A: The IC50 was 5.2 µM.

Q: And the IC50 [2]?
A: Its IC50 is 2.4 µM.

Q: How did the IC50 [1] turn out when `COC(=O)CNC(=O)c1ccc2c(c1)nc(C(Cc1ccccc1)NC(=O)CCS)n2CCN` (stereo not drawn) [Example 50, ({1-(2-Amino-ethyl)-2-[1-(3-mercapto-propionylamino)-2-phenyl-ethyl]-1H-benzoimidazole-5-carbonyl}-amino)-acetic acid methyl ester] was run?
A: Its IC50 is 7.2 µM.

Q: And the IC50 [2]?
A: The IC50 was 3.8 µM.

Q: For `COC(=O)CNC(=O)c1ccc2c(c1)nc(C(Cc1ccccc1)NC(=O)CCC(=O)NO)n2CCN` (stereo not drawn) [Example 56, ({1-(2-Amino-ethyl)-2-[1-(3-hydroxycarbamoyl-propionylamino)-2-phenyl-ethyl]-1H-benzoimidazole-5-carbonyl}-amino)-acetic acid methyl ester], which IC50 [1] is on record?
A: Its IC50 is 2 µM.

Q: What about the IC50 [2] of the same molecule?
A: Its IC50 is 1.6 µM.

Source: patent US20070066672A1, “Benzimidazole derivatives and use thereof as peptide deformylase inhibitors” (Arpida A/S, priority 2003, published 2007)
